# Data reported in patent US20090054403A1, “Treatment of Post-Traumatic Stress Disorder” (priority 2007, published 2009).
# Tests used:
# bovine DBH = target: T1, bovine DBH (Bos taurus, UniProt P15101); experiment: Bovine DBH inhibition kinetics, [14C]tyramine radioactive method; format: biochemical
# T1 construct: Bovine DBH from adrenal glands was obtained from Sigma Chemicals; purchased Sigma Chemicals (St Louis, Mo.); host or cells: bovine adrenal glands
# Protocol: Enzyme Assay by Radioactive Method. Enzymatic activity was assayed using [^14C]tyramine as substrate and a C18 column to separate the product. The assay was performed in […] volume containing 100 mM NaAc, pH 5.2, 10 mM fumaric acid, 0.5 μM CuSO4, 4 mM ascorbic acid, 0.1 mg/ml catalase and various concentrations of tyramine. The total counts of each reaction was ˜15,000 cpm. Bovine DBH (0.18 ng for each reaction) was mixed with tyramine and inhibitor in the reaction buffer at 37° C. The reaction was initiated by the addition of ascorbate/catalase mixture and was incubated at 37° C. for 30 minutes. The reaction was stopped by the addition of […] of 25 mM EDTA, 50 mM KH2PO4, pH 2.3. Entire mixture was loaded to a C18 light load column (two combined into one) that was pre-washed with MeOH and equilibrated with 50 mM KH2PO4, pH 2.3. Elution into scintillation vials was carried out with 1 ml of KH2PO4, pH 2.3 buffer twice, followed by 2 ml of the same buffer. ReadySafe scintillation fluid (16 ml) was added to the scintillation vials and the samples were counted for ^14C radioactivity.
# Nepicastat concentrations of 0, 1, 2, 4, 8 nM were used to study inhibition kinetics at the following tyramine concentrations: 0.5, 1, 2, 3, 4 mM. […] Km′ was calculated from the slopes and Y intercepts and linear regression was used to obtain Ki value.
# [1] = tested on: tissue norepinephrine and dopamine levels; experiment: Tissue catecholamines in iodine-deficient rats after 10 days b.i.d. dosing; format: in vivo, Sprague-Dawley rats; conditions: day 10; for dopamine/norepinephrine ratio vs vehicle, mesenteric artery: hydrochloride
# Protocol: Male Sprague-Dawley rats, weighing 180-200 grams, were fed an iodine deficient diet (Purina, 5891C, Lot 1478, 0.066±0.042 mg iodine/kg sample) ad libitum 14 days prior to treatment. Animals were weighed and randomly assigned to one of the following treatment groups (n=12 per group): Nepicastat at 2.0 mg/kg, Nepicastat at 6.2 mg/kg, R, Methimazole at 1 mg/kg, or vehicle at 1 ml/kg. Each group of rats was dosed orally in the evening and the following morning, approximately 12 hours apart, for 10 consecutive days.
# At four hours after the second dose, on day 10, rats were anesthetized with halothane, decapitated, and the cortex, striatum, and mesenteric artery were harvested and weighed. Tissue samples were not harvested from the methimazole groups as they only served as positive controls for determination of thyroid function. The mesenteric artery, cortex, and striatum were immediately placed in 0.4M iced perchloric acid and analyzed for norepinephrine and dopamine levels the same day using HPLC.
# To statistically evaluate changes in T3 and T4 levels, a change from baseline was calculated from the day-3 time point. A non-parametric two-way within subject analysis of variance (ANOVA) was conducted. Also a one-way ANOVA was performed to detect if a significant difference from control occurred. Pairwise analyses between controls and each treatment group were carried out using Fisher's LSD strategy to control the experiment-wise error rate. For statistical analysis of catecholamine levels, a one-way ANOVA with factor DOSE was performed. Pairwise analyses between treated and controls at each dose were carried out using Fisher's LSD strategy to control the experiment-wise error rate.
# blood pressure = experiment: Radio-telemetry blood pressure in SHR, up to 30 days; format: in vivo
# squirrel monkeys = experiment: Safety and tolerability of oral dosing in squirrel monkeys; format: in vivo, squirrel monkeys (Saimiri sciureus); conditions: 0.5, 2.0, 5.0 mg/kg twice daily for 5 days
# Protocol: Twenty-seven (27) mature squirrel monkeys (Saimiri sciureus), sixteen females and eleven males were used for this study. The monkeys were maintained on a 13 h/11 h light-dark cycle, with food and water available ad libitum. All procedures used in this study followed NIH guidelines and were approved by the Institutional Animal Care and Use Committee (IACUC). Animals were individually housed and allowed a minimum of one month to acclimate to the colony prior to commencing behavioral studies. A total of six squirrel monkeys, three non-lesioned and three lesioned (received 2 mg/kg MPTP 3 months prior), were used for these studies. To determine the optimal route of administration of drug nepicastat, three different approaches were examined including (i) insertion into treats, (ii) oral syringe, and (ii) oral gavage. […] (ii) Oral syringe injection of drug (0.5, 2, and 5 mg/kg) into the mouth of three non-lesioned and three lesioned monkeys was also not an acceptable route since animals tended to spit out the solution at the highest drug concentration. (iii) Oral gavage administration was carried out in 3 MPTP-Iesioned monkeys at the highest dose (5 mg/kg) and was well accepted.
# A total of six squirrel monkeys, three non-lesioned and three lesioned (received 2 mg/kg MPTP 3 months prior), were used for these studies. […]
# locomotor activity = experiment: Infrared activity monitoring (IRAM) in MPTP-lesioned monkeys; format: in vivo, squirrel monkeys (Saimiri sciureus)
# Protocol: Drug nepicastat or water (as placebo) was administered for 12 days following a minimum 2 day washout after L-Dopa dosing. Drug was administered twice daily at 10 am and 2 pm by oral gavage. Behavior was rated by IRAM and CRS. The CRS was conducted in the morning, 60 to 90 minutes after the 10 am dose of nepicastat on the last 5 days of drug treatment. Raters (one to three individuals) were blinded to the different treatment groups. IRAM assessments were preformed for 90 minutes immediately following drug administration at 2 pm on the last 5 days of drug treatment.
# IRAM Locomotor activity was monitored every 10 minutes for a minimum of 90 minutes following each drug level. A higher rating is considered a faster (less parkinsonian) animal.
# Statistical analysis consisted of descriptive statistics and graphing the mean of each 10 minutes data blocks of placebo and experimental drug at 1, 4, and 10 mg/kg. The graph was then examined to detect any trends. Further statistical analysis was not performed since no difference was determined from graphical analysis.
# T1 sequence (P15101 whole entry): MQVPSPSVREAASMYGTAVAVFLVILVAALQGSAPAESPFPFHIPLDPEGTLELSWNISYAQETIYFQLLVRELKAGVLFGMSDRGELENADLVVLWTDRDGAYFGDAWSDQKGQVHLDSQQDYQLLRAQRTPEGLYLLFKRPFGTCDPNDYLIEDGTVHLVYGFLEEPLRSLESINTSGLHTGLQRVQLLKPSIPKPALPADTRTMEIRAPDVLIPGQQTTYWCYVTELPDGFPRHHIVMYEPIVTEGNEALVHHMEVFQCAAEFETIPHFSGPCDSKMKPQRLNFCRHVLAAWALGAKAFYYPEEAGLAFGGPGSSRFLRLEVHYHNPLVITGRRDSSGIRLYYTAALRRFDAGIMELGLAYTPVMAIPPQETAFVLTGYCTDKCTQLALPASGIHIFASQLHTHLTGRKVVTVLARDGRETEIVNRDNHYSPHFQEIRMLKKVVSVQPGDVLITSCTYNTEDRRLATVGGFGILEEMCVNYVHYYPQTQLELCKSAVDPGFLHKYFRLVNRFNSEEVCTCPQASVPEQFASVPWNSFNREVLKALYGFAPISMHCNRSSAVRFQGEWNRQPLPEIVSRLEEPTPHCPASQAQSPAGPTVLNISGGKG
smiles,measurement,setting,value
"Cl.NCc1c[nH]c(=S)n1[C@H]1CCc2c(F)cc(F)cc2C1 [nepicastat, (S)-5-Aminomethyl-1-(5,7-difluoro-1,2,3,4-tetrahydronaphth-2-yl)-2,3-dihydro-2-thioxo-1H-imidazole hydrochloride]",type of inhibition,"bovine DBH; nepicastat 1-8 nM, tyramine 0.5-4 mM",competitive with tyramine
same,Ki,"bovine DBH; vs tyramine, linear regression of apparent Km",4.7 ± 0.4 nM
same,"norepinephrine levels vs vehicle, cortex",[1]; 2.0 and 6.2 mg/kg b.i.d.,not significantly (p>0.05) different
same,"norepinephrine levels vs vehicle, mesenteric artery",[1]; 2.0 and 6.2 mg/kg b.i.d.,significantly (p<0.05) lower
same,"norepinephrine levels vs vehicle, striatum",[1]; 2.0 and 6.2 mg/kg b.i.d.,marginally (p<0.10) lower
same,"dopamine/norepinephrine ratio vs vehicle, mesenteric artery",[1]; 2.0 and 6.2 mg/kg b.i.d.,significantly (p<0.05) higher
same,"dopamine/norepinephrine ratio vs vehicle, mesenteric artery","[1]; 2.0 and 6.2 mg/kg b.i.d., listed as 2a",significantly raised
same,"dopamine/norepinephrine ratio vs vehicle, cortex and striatum","[1]; 2.0 and 6.2 mg/kg b.i.d., listed as RS-25560-197, hydrochloride",not significantly (p>0.05) different
same,"dopamine levels vs vehicle, cortex, striatum and mesenteric artery",[1]; 2.0 or 6.2 mg/kg b.i.d.,not significantly (p>0.05) different
same,peak decrease in blood pressure,blood pressure; 30 mg/kg/d,−20 mmHg
same,peak decrease in blood pressure,blood pressure; 100 mg/kg/d,−42 mmHg
same,effect on blood pressure,blood pressure; 3 and 10 mg/kg/d,no significant effects
same,effect on blood pressure,blood pressure; 30 and 100 mg/kg/d for 30 days,significantly lowered blood pressure
same,effect on blood pressure of nepicastat 30 mg/kg combined with enalapril 1 mg/kg p.o.,blood pressure; 30 days of dosing,potentiation of the antihypertensive effects
same,"left ventricular mass, nepicastat 30 mg/kg combined with enalapril 1 mg/kg p.o.",blood pressure; 30 days of dosing,significant reduction in left ventricular mass
same,motor activity,blood pressure; 30 days of dosing,unaffected
same,tolerability,squirrel monkeys,well tolerated at the two lower doses
same,activity monitoring compared to placebo,locomotor activity; 1 mg/kg/day,slower than placebo treatment
same,activity monitoring compared to placebo,"locomotor activity; 4 and 10 mg/kg/day, 10 to 90 minutes post-dosing",no difference
